These results are taken from patent US20190192458A1, “THERAPEUTIC/PROPHYLACTIC AGENT FOR GRAFT-VERSUS-HOST DISEASE, FIBROCYTE INVASION INHIBITOR, AND INHIBITOR AGAINST TEAR REDUCTION AND REDUCTION IN GOBLET CELLS” (KEIO UNIVERSITY, priority 2016, published 2019).

For assay [1], the system named is CHOP-expressing macrophages in lacrimal gland. Nature of the assay: Immunofluorescence of CD68/CHOP in lacrimal gland. It counts as in vivo. Particulars: lacrimal gland from PBA-treated vs vehicle-treated mouse, FIG. 7A. The method, then:
Bone marrow transplantation was performed as described in the above section “Bone marrow transplantation,” and the resulting allogeneic bone marrow transplantation recipient mice were divided into two groups. One group was treated with intraperitoneal injection of PBA (10 mg/kg) (Aldrich) while the other was treated with intraperitoneal injection of a solvent vehicle⋅phosphate buffered saline (PBS) (pH 7.4). The allogeneic bone marrow transplantation recipients received once-daily administration of PBA or the solvent vehicle from Day 10 to Day 27 after bone marrow transplantation. They were sacrificed on Day 28 after bone marrow transplantation. […]
Fluorescence images were captured under an LSM confocal microscope (Carl Zeiss). For counting CD45^+ cells, 5 randomly selected regions per section were photographed at a magnification of ×200, and the number of CD45^+ cells in each image was then determined. […]

Assay [2] deals with mouse splenic macrophages. Put plainly: Cultured splenic macrophages from PBA-treated and vehicle-treated mice (immunofluorescence, immunoblot, qPCR). It counts as cell-based. The method, then:
Bone marrow transplantation was performed as described in the above section “Bone marrow transplantation,” and the resulting allogeneic bone marrow transplantation recipient mice were divided into two groups. One group was treated with intraperitoneal injection of PBA (10 mg/kg) (Aldrich) while the other was treated with intraperitoneal injection of a solvent vehicle⋅phosphate buffered saline (PBS) (pH 7.4). The allogeneic bone marrow transplantation recipients received once-daily administration of PBA or the solvent vehicle from Day 10 to Day 27 after bone marrow transplantation. They were sacrificed on Day 28 after bone marrow transplantation.
Mouse splenic macrophages were cultured according to the Alatery and Besta method (Alatery A, Basta S, An efficient culture method for generating large quantities of mature mouse splenic macrophages. J Immunol Methods, 2008; 338: 47-57). Splenic cells suspended in RPMI containing 5% FBS were plated on a culture dish, and allowed to stand at 37° C. overnight. Subsequently, floating cells were removed. The desired cells adhering on the dish were cultured for 7 days in RPMI containing recombinant mouse M-CSF (5 ng/mL) (Peprotech Inc.), 5% of FBS, and 5% of the antibiotic. Induced macrophages were then detached from the culture dish by using accutase (Thermo Fisher Scientific), and used for experiments.
The induced macrophages were then transferred to an 8-well chamber slide (Fibronectin Culture Slide; Corning), and fixed with 10% neutral buffered formalin. Subsequently, they were blocked with methanol containing 0.3% hydrogen peroxide for 30 minutes at room temperature, and incubated with primary antibodies CD68 (AbD Serotec) and CHOP (Santa Cruz) overnight at 4° C. Then, the sections were treated with goat anti-mouse IgG (H+L) secondary antibody conjugated with Alexa Fluor 568 (Molecular Probes) and 4′,6-diamidino-2-phenylindole (DAPI) (Life Technologies) at room temperature for 45 minutes, and then mounted with an anti-fading mounting medium (Dako). Fluorescence images were captured under an LSM confocal microscope (Carl Zeiss).
The total RNA was extracted from the exorbital lacrimal gland, the proximal portion of the small intestine, the dorsal skin, the liver, the cultured fibroblasts, and the cultured macrophages using a miRNeasy mini kit (Qiagen), and the corresponding complementary DNAs were synthesized using a Rever Tra Ace qPCR RT kit (Toyobo Co., Ltd.). Primers used for analyzing the mRNA expression of the following genes with the TaqMan real-time polymerase chain reaction (PCR) were purchased from Applied Biosystems: housekeeping gene […] (GAPDH), glucose-regulated protein 78 (GRP78), Interleukin-1β (IL-1β), IL-6, IL-10, macrophage chemoattractant protein-1 (MCP-1), and transcription growth factor-β (TGF). A Step One Plus system (Applied Biosystems) was used to perform quantitative real time PCR, and the resulting data was analyzed by the 2^−ΔΔCT method. GAPDH was used as an internal standard for measuring the expression of mRNA.
Tissues of interest were each placed into an Eppendorf tube, and a pre-cooled RIPA buffer solution was then added to the tube. Subsequently, the tissues were each homogenized with an electric homogenizer. Samples were each allowed to stand on ice for 1 hour, and then centrifuged at 15000 rpm for 5 minutes at 4° C. Then, the supernatants were each collected in a fresh tube on ice, and used as a cell lysate. The cell lysates each received the same amount of a 5×Laemmli buffer solution, and each was heated at 100° C. for 5 minutes to denature proteins.
An aliquot of each sample having the same amount of proteins was loaded into a well of an SDS-PAGE gel, and then […]. Proteins were transferred from the gel to a membrane at 15 V for 20 minutes. The membrane was blocked at room temperature for 1 hour with 5% skim milk or 5% BSA (bovine serum albumin) in 1×TBST (a mixture of Tris-buffered saline and Tween 20). […]
(In general: Immunoblotting shows a protein as a band on a membrane.)

Setting [3] is: splenic macrophages from PBA-treated vs vehicle-treated mouse, immunoblot, n=4.
Setting [4] is: splenic macrophages, qPCR, n=4 to 5, PBA-treated vs vehicle-treated, FIG. 7E.

In the case of `O=C(O)CCCc1ccccc1` [PBA, 4-phenyl-n-butyric acid], the “CHOP-expressing macrophages migrated into lacrimal gland” value in assay [1] is listed as “not observed”. Further, the “CHOP expression in cultured splenic macrophages (immunofluorescence)” value in assay [2] (splenic macrophages from PBA-treated vs vehicle-treated mouse, FIG. 7B) is on record as “vehicle-treated splenic macrophages express CHOP in contrast with PBA-treated splenic macrophages”. In addition, in assay [2] (setting [3]), the “CHOP in splenic macrophages (immunoblot)” value was “substantially inhibited”, the “GRP78 in splenic macrophages” value is on record as “substantially inhibited”, the “phosphorylated IRE1α in splenic macrophages” value is listed as “substantially inhibited” and the “phosphorylated PERK in splenic macrophages” value is listed as “substantially inhibited”. Moreover, in assay [2] (setting [3]), the “phosphorylated eIF2α in splenic macrophages” value is “substantially inhibited”. Further, in assay [2] (setting [4]), the “gene expression of M1 macrophage marker IL-1β” value is “higher gene expressions”, the “gene expression of M1 macrophage marker IL-6” value is reported as “higher gene expressions”, the “mRNA expression of M2 macrophage marker IL-10” value was “increased in the vehicle-treated macrophages as compared with the PBA-treated macrophages” and the “mRNA expression of M2 macrophage marker TGF-β” value is recorded as “increased in the vehicle-treated macrophages as compared with the PBA-treated macrophages”.
